Measured values: article PMC5218480 (PLoS ONE, 2017)

System: MV-4-11 cells
Test: Gene expression microarray analysis (Affymetrix PrimeView) and GSEA
Assay type: cell-based, human
Settings: ProbeSet 11717523_x_at; LIST B

Structure (SMILES): Nc1ccc(-c2cccs2)cc1NC(=O)c1ccc2c(c1)cc(C1CC1)n2CCN1CCOCC1 [ACY-1035]
- RFU, TMEM50B: 85.32 RFU
